Results published in patent US5910494A, “Hypolipidemic 1,4-benzothiazepine-1,1-dioxides” (Glaxo Wellcome Inc., priority 1997, dated 1999).

Tested on: ileal bile acid active uptake transport system
Assay: In vivo inhibition of bile acid uptake: fecal excretion of 75SeHCAT (% inhibition of 75SeHCAT)
Parameters: species or system Male Spraque-Dawley rats
Conditions: oral gavage, twice daily for two days, rat, feces over 24 hr
Description: In vivo inhibition of bile acid uptake
Inhibiting intestinal bile acid absorption with bile acid sequestrants or surgically with partial ileal bypass surgery is an effective way to decrease plasma LDL cholesterol concentration. Another approach to decreasing bile acid absorption is inhibiting the ileal bile acid active uptake transport system. It has been shown that this inhibition, as measured by the fecal excretion of bile acids results in hypocholesterolemic activity. (1) Lewis, M. C.; Brieaddy, L. E.; and Root, C. Effects of 2164U90 on Ileal Bile Acid Absorption and Serum Cholesterol in Rats and Mice. J. Lipid. Research., 1995, 36, 1098-1105.
Fecal Excretion of Bile Acids
Male Spraque-Dawley rats weighing 220-260 g were housed in individual cages and fed normal chow. The rats were divided into 6 treatment groups of 10 to 12 rats per group. The rats were dosed by oral gavage(1 mL/100 g body weight) with test compounds as a suspension in 0.5% methylcellulose at 9:00 am and 3:30 pm for two days. The control group received 0.5% methylcellulose. Two hours after the morning dose on day two, the rats were given a trace amount(1.3 nmoles) of 23, 25-^75 Se-homocholic acid taurine(^75 SeHCAT) in 1.0 mL saline orally. ^75 SeHCAT, a synthetic gamma emitting bile acid analog which is absorbed by the ileal bile acid uptake system similar to taurocholic acid, has been used clinically as a measure of ileal bile acid absorptionl,^1,2. Feces were collected over the 24 hr following ^75 SeHCAT administration. Fecal content of ^75 SeHCAT was determined using a Packard Auto-Gamma 5000 Series gamma-counter. Representative data are tabulated in Table 1 as the % inhibition of ^75 SeHCAT.

Row | Compound | % Inhibition of ^75 SeHCAT (0.1 mg/kg) | % Inhibition of ^75 SeHCAT (0.3 mg/kg) | % Inhibition of ^75 SeHCAT (1.0 mg/kg)
1 | CCCC[C@]1(CC)CS(=O)(=O)c2cc(O)c(OC)cc2[C@@H](c2ccccc2)N1 [Example 9, (3R,5R)-3-Butyl-3-ethyl-2,3,4,5-tetrahydro-7-methoxy-5-phenyl-1,4-benzothiazepine-8-ol 1,1-dioxide] | 70% | 80% | –
2 | CCCC[C@]1(CC)CS(=O)(=O)c2cc(O)c(O)cc2[C@@H](c2ccccc2)N1 [Example 7, (3R,5R)-3-Butyl-3-ethyl-2,3,4,5-tetrahydro-5-phenyl-1,4-benzothiazepine-7,8-diol 1,1-dioxide] | 72% | 65% | –
3 | CCCC[C@]1(CC)CS(=O)(=O)c2cc(OC)c(COC)cc2[C@@H](c2ccccc2)N1 (relative stereo) [Example 24, (+-)-Trans-3-butyl-3-ethyl-2,3,4,5-tetrahydro-8-methoxy-7-(methoxymethyl)-5-phenyl-1,4-benzothiazepine 1,1-dioxide] | – | 24% | 49%
4 | CCCC[C@]1(CC)CS(=O)(=O)c2cc(OC)c(C=O)cc2[C@@H](c2ccccc2)N1 (relative stereo) [Example 14, (+-)-Trans-3-butyl-3-ethyl-2,3,4,5-tetrahydro-8-methoxy-5-phenyl-1,4-benzothiazepine-7-carbaldehyde 1,1-dioxide] | – | 41% | 56%
5 | CCCC[C@]1(CC)CS(=O)(=O)c2cc(OC)c(OC)cc2[C@@H](c2ccccc2)N1 [Example 1, (3R,5R)-3-butyl-3-ethyl-2,3,4,5-tetrahydro-7,8-dimethoxy-5-phenyl-1-4-benzothiazepine 1,1-dioxide] | 54% | 51% | –
6 | CCCC[C@]1(CC)CS(=O)(=O)c2cc(OC)ccc2[C@@H](c2ccccc2)N1 (relative stereo) [Example 10, (+-)-Trans-3-butyl-3-ethyl-2,3,4,5-tetrahydro-8-methoxy-5-phenyl-1,4-benzothiazepine 1,1-dioxide] | 33% | 53% | –
7 | CCCC[C@]1(CC)CS(=O)(=O)c2cc(O)ccc2[C@@H](c2ccccc2)N1 (relative stereo) [Example 11, (+-)-trans-3-butyl-3-ethyl-2,3,4,5-tetrahydro-5-phenyl-1,4-benzothiazepine-8-ol 1,1-dioxide] | 71% | 72% | –
8 | CCCC[C@]1(CC)CS(=O)(=O)c2cc(S(=O)(=O)O)ccc2[C@@H](c2ccccc2)N1 (relative stereo) [Example 18, (+-)-Trans-3-butyl-3-ethyl-2,3,4,5-tetrahydro-5-phenyl-1,4-benzothiazepine-8-sulfonic acid 1,1-dioxide] | – | 12% | 39%
9 | CCCC[C@]1(CC)CS(=O)(=O)c2cc(O)c(C=O)cc2[C@@H](c2ccccc2)N1 (relative stereo) [Example 16, (+-)-Trans-3-butyl-3-ethyl-2,3,4,5-tetrahydro-8-hydroxy-5-phenyl-1,4-benzothiazepine-7-carbaldehyde 1,1-dioxide] | – | 34% | 44%
10 | CCCC[C@]1(CC)CS(=O)(=O)c2cc(OC)c(OC)cc2[C@@H](c2ccccc2)N1OC(C)=O (relative stereo) [Example 45, (+-)-Trans-3-butyl-3-ethyl-5-phenyl-2,3,4,5-tetrahydro-7,8-dimethoxy-1,4-benzothiazepin-4-yl acetate S,S-dioxide] | – | 6% | 26%
